Experimental findings from patent US20100029643A1 (ASTRAZENECA AB, priority 2006, published 2010) are described below.

T1 sequence (P21453 whole entry): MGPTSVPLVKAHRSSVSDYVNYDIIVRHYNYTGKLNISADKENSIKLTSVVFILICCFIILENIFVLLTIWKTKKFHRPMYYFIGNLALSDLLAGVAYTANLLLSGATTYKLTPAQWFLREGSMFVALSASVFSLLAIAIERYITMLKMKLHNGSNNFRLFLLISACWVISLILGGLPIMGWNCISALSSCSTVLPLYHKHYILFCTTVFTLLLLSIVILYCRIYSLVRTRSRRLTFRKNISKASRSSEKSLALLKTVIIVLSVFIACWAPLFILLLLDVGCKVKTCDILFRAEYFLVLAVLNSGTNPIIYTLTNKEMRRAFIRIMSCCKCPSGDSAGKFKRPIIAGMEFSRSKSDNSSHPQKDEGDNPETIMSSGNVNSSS

The first experiment concerns the target T1, Edg-1/S1P1 receptor (Homo sapiens, UniProt P21453).
T1 construct: expressed in transfected cells; host or cells: human osteogenic sarcoma U2OS cells: Edg-1 Transfluor U2OS WT Clone #37 (assay I), Edg-1 Transfluor U2OS Clone #3 (assay II)
Briefly: In vitro cell based receptor activation assay - Transfluor assay (assay I or II; beta-arrestin GFP relocalization after S1P stimulation). The settings on record: at 3.30 μM (run with this as top concentration). The source says: The following assays can be used to measure the effects of the compounds of the present invention as S1P1/Edg1 inhibitors.
I. In Vitro Cell Based Receptor Activation Assay-Transfluor Assay
This cell-based assay was designed to assess the ability of small molecule antagonists to inhibit activation of the GPCR S1P1 in the presence of its cognate ligand S1P. The assay used technology initially developed by Norak Biosciences (Xsira Pharmaceutical) and presently owned by Molecular Devices. A human osteogenic sarcoma (U2OS) cell line overexpressing the Edg-1/S1P1) receptor as well as a beta-arrestin/green fluorescent protein (GFP) construct hereafter termed Edg-1 Transfluor U2OS WT Clone #37 was employed.
Using a high content screening approach (Cellomics Arrayscan), receptor activity was measured by assessment of the relocalization of beta-arrestin GFP in response to stimulation of Edg-1 by SIP. Specifically, Edg-1 Transfluor U2OS WT Clone #37 cells were plated at a density of 6250 cells in 40 μL medium per well in 384 well plastic bottomed microtiter plates (BD Falcon) and incubated overnight at 37° C./5% CO2. Prior to screening, compounds were dissolved in 100% dimethyl sulfoxide (DMSO) to a final stock concentration of 10 mM. Compounds were then serially diluted at 30× final concentration in Edg-1 Transfluor cell growth medium containing […] using the Tecan Genesis instrument. These 30× plates were then diluted to 6× final concentration with Edg-1 Transfluor growth medium just prior to dosing. Cells were then dosed with 10 μL per well of 6× compound dilutions or 6% DMSO and pre-incubated for 15 minutes at room temperature. Cell plates were dosed with 10 μL per well 6× S1P Edg-1 Transfluor growth medium, then incubated for 45 minutes at 37° C./5% CO2. Final concentration in the well of DMSO was 1%, compound was IX (3-fold, 9 point IC50 dilutions starting at 100 μM final concentration), and either 375 nM or […] SIP ligand. Cell plates were then fixed by adding 50 μL per well of 5% formaldehyde in 1× Dulbecco's phosphate buffered saline (DPBS) directly and incubating for 30 minutes at room temperature in darkness. Fixative was removed and replaced with 50 μL per well of 1×DPBS, after which cells were stained with 10 μg/mL final concentration of Hoechst 33342 (Molecular Probes) for 15 minutes at room temperature in darkness. Stain was then removed from the plates and replaced with 50 μL per well of 1×DPBS using the BioTek ExL405 plate washer. Plates were then sealed and analysed on the Cellomics Arrayscan using the GPCR signalling algorithm. EC50 values were then calculated using IDBS ActivityBase software.
II. In Vitro Cell Based Receptor Activation Assay-Transfluor Assay
This cell-based assay was designed to assess the ability of small molecule antagonists to inhibit activation of the GPCR S1P1 in the presence of its cognate ligand S1P. The assay used technology initially developed by Norak Biosciences (Xsira Pharmaceutical) and presently owned by Molecular Devices (MDS Analytical Technologies). A human osteogenic sarcoma (U2OS) cell line overexpressing the Edg-1/S1P1) receptor as well as a beta-arrestin/green fluorescent protein (GFP) construct hereafter termed Edg-1 Transfluor U2OS Clone #3 was employed.
Using a high content screening approach (Molecular Devices Image Express), receptor activity was measured by assessment of the relocalization of beta-aiTestin GFP in response to stimulation of Edg-1 by S1P. Specifically, Edg-1 Transfluor U2OS Clone #3 cells were plated at a density of 6250 cells in 44 μL medium per well in 384 well plastic bottomed microtiter plates (BD Falcon) and incubated overnight at 37° C./5% CO2. Prior to screening, compounds were dissolved in 100% dimethyl sulfoxide (DMSO) to a final stock concentration of 10 mM. Compounds were then serially diluted at 10× final concentration in Edg-1 Transfluor cell growth medium containing 6% DMSO using the BioMek instrument. […]
One may read the inhibition as the share of the control response that was lost under treatment. Lower therefore signals little suppression. In the case of `CCCn1c(C(C)NS(=O)(=O)c2ccc(Cl)cc2)nc2ccccc21` (centres unmarked) [Example 17, 4-Chloro-N-[1-(1-propyl-1H-benzimidazol-2-yl)ethyl]-benzenesulfonamide], the inhibition at 3.3 µM was 92.8%.

Staying with this experiment, now noted: at 3.50 μM (titrated from top concentration 10 μM).
In turn, `CCn1c([C@@H](C)NS(=O)(=O)c2ccc(Cl)cc2)nc2ccc(CO)cc21` (stereo in doubt) [Example 68, 4-Chloro-N-{1-[1-ethyl-6-(hydroxymethyl)-1H-benzimidazol-2-yl]ethyl}benzenesulfonamide] showed an inhibition at 3.5 µM of 94.4%.

For the compound `CCn1c([C@@H](C)NS(=O)(=O)c2ccc(C#N)cc2)nc2cnc(C3CC3)cc21` (stereo in doubt) [Example 183, 4-Cyano-N-[1-(6-cyclopropyl-1-ethyl-1H-imidazo[4,5-c]pyridin-2-yl)-ethyl]-benzenesulfonamide], at 3.5 µM the inhibition was 83.4%.

Turning to `CCC(NS(=O)(=O)c1ccc(Cl)cc1)c1nc2ccccc2n1CC` (centres unmarked) [Example 2, 4-Chloro-N-[1-(1-ethyl-1H-benzoimidazol-2-yl)propyl]-benzenesulfonamide], testing at 3.5 µM gave an inhibition of 94%.

`CCn1c([C@@H](C)NS(=O)(=O)c2ccc(Cl)cc2)nc2ccc(C(F)(F)F)cc21` [Example 9, 4-Chloro-N-{(1R)-1-[1-ethyl-6-(trifluoromethyl)-1H-benzimidazol-2-yl]ethyl} benzene-sulfonamide] yielded an inhibition at 3.5 µM of 84.8%.

`CCn1c(C(C)NS(=O)(=O)c2ccc(Cl)cc2)nc2ncccc21` (centres unmarked) [Example 12, 4-Chloro-N-[1-(1-ethyl-1H-imidazo[4,5-b]pyridin-2-yl)-ethyl]-benzenesulfonamide] gave an inhibition at 3.5 µM of 93.3%.

With `CCn1c(C(C)(C)NS(=O)(=O)c2ccc(Cl)cc2)nc2ccccc21` [Example 16, 4-Chloro-N-[1-(1-ethyl-1H-benzoimidazol-2-yl)-1-methyl-ethyl]-benzenesulfonamide], the inhibition at 3.5 µM was found to be 96.2%.

Staying with this experiment, now noted: at 3.70 μM (titrated from top concentration 100 μM).
In the case of “4-Chloro-N-{1-[1-ethyl-6-(methylsulfonyl)-1H-benzimidazol-2-yl]ethyl}benzenesulfonamide [Example 80]”, the “% inhibition” value is “[drawing 92] 4-Chloro-N-{1-[1-ethyl-6- (methylsulfonyl)-1H- benzimidazol-2-yl]ethyl}benzenesulfonamide (22.57% inhibition at 3.70 μM)”.

In turn, `CCOC(=O)c1ccc2nc([C@@H](C)NS(=O)(=O)c3ccc(Cl)cc3)n(CC)c2c1` (stereo in doubt) [Example 67, Ethyl 2-(1-{[(4-chlorophenyl)sulfonyl]amino}-ethyl)-1-ethyl-1H-benzimidazole-6-carboxylate] returned an inhibition at 3.7 µM of 91.3%.

Turning to `CCn1c([C@@H](C)NS(=O)(=O)c2ccc(Cl)cc2)nc2ccc(C(=O)N(C)C)cc21` (stereo in doubt) [Example 72, 2-(1-{[(4-Chlorophenyl)sulfonyl]amino}-ethyl)-1-ethyl-N,N-dimethyl-1H-benzimidazole-6-carboxamide], at 3.7 µM the inhibition was 21.7%.

Turning to `CCn1c([C@@H](C)NS(=O)(=O)c2ccc(Cl)cc2)nc2ccc(C(=O)N3CCOCC3)cc21` (stereo in doubt) [Example 73, 4-Chloro-N-{1-[1-ethyl-6-(morpholin-4-ylcarbonyl)-1H-benzimidazol-2-yl]ethyl}benzenesulfonamide], at 3.7 µM the inhibition was 8.88%.

In turn, `CCn1c([C@@H](C)NS(=O)(=O)c2ccc(Cl)cc2)nc2ccc(SC)cc21` (stereo in doubt) [Example 79, 4-Chloro-N-{1-[1-ethyl-6-(methylthio)-1H-benzimidazol-2-yl]ethyl}benzenesulfonamide] gave an inhibition at 3.7 µM of 94.9%.

Turning to `CCn1c(C(NS(=O)(=O)c2ccc(Cl)cc2)C(C)C)nc2ccccc21` (centres unmarked) [Example 3, 4-Chloro-N-[1-(1-ethyl-1H-benzimidazol-2-yl)-2-methyl-propyl]benzenesulfonamide], 3.7 µM produced 59% inhibition.

Compound `CCn1c(C(CC(C)C)NS(=O)(=O)c2ccc(Cl)cc2)nc2ccccc21` (centres unmarked) [Example 4, 4-Chloro-N-[1-(1-ethyl-1H-benzimidazol-2-yl)-3-methyl-butyl}benzenesulfonamide] gave an inhibition at 3.7 µM of 66.4%.

`CCn1c(C(Cc2ccccc2)NS(=O)(=O)c2ccc(Cl)cc2)nc2ccccc21` (centres unmarked) [Example 5, 4-Chloro-N-[1-(1-ethyl-1H-benzimidazol-2-yl)-2-phenyl-ethyl]benzenesulfonamide]: testing at 3.7 µM gave an inhibition of 73.2%.

`CCn1c(C(Cc2ccc(F)cc2)NS(=O)(=O)c2ccc(Cl)cc2)nc2ccccc21` (centres unmarked) [Example 6] showed an inhibition at 3.7 µM of 77.7%.

The compound `CCn1c(C(Cc2cccnc2)NS(=O)(=O)c2ccc(Cl)cc2)nc2ccccc21` (centres unmarked) [Example 7, 4-Chloro-N-[1-(1-ethyl-1H-benzimidazol-2-yl)-2-pyridin-3-yl-ethyl]benzene-sulfonamide] yielded an inhibition at 3.7 µM of 79.7%.

The compound `CC(NS(=O)(=O)c1ccc(Cl)cc1)c1nc2ccccc2n1C` (centres unmarked) [Example 8, 4-Chloro-N-[1-(1-methyl-1H-benzimidazol-2-yl)ethyl]-benzenesulfonamide] yielded an inhibition at 3.7 µM of 91.2%.

Take `CCn1c(C(C)NS(=O)(=O)c2ccc(Cl)cc2)nc2ccc(Cl)cc21` (centres unmarked) [Example 10, 4-Chloro-N-[1-(6-chloro-1-ethyl-1H-benzimidazol-2-yl)ethyl]benzenesulfonamide]: testing at 3.7 µM gave an inhibition of 89.9%.

The compound `CCn1c([C@@H](C)NS(=O)(=O)c2ccc(Cl)cc2)nc2cccc(OC)c21` [Example 11, 4-Chloro-N-[(1R)-1-(1-ethyl-7-methoxy-1H-benzimidazol-2-yl)ethyl]benzene-sulfonamide] came in with an inhibition at 3.7 µM of 82%.

On to `CCn1c(C(C)NS(=O)(=O)c2ccc(Cl)cc2)nc2cnccc21` (centres unmarked) [Example 13, 4-Chloro-N-[1-(1-ethyl-1H-imidazo[4,5-c]pyridin-2-yl)ethyl]benzene sulfonamide], for which the inhibition at 3.7 µM was found to be 72.8%.

`CCn1c(C(C)NS(=O)(=O)c2ccc(Cl)cc2)nc2ccncc21` (centres unmarked) [Example 14, 4-Chloro-N-[1-(3-ethyl-3H-imidazo[4,5-c]pyridin-2-yl)ethyl] benzene sulfonamide]: the inhibition at 3.7 µM stood at 72.8%.

`CCn1c(C(C)NS(=O)(=O)c2ccc(Cl)cc2)nc2cccnc21` (centres unmarked) [Example 15, 4-Chloro-N-[1-(3-ethyl-3H-imidazo[4,5-b]pyridin-2-yl)ethyl]benzenesulfonamide] displayed an inhibition at 3.7 µM of 61.5%.

On to `CC(NS(=O)(=O)c1ccc(Cl)cc1)c1nc2ccccc2n1CC1CC1` (centres unmarked) [Example 18, 4-Chloro-N-{1-[1-(cyclopropylmethyl)-1H-benzimidazol-2-yl]ethyl}-benzenesulfonamide], for which testing at 3.7 µM gave an inhibition of 100%.

`CC(C)Cn1c(C(C)NS(=O)(=O)c2ccc(Cl)cc2)nc2ccccc21` (centres unmarked) [Example 19, 4-Chloro-N-[1-(1-isobutyl-1H-benzimidazol-2-yl)ethyl]-benzenesulfonamide] had an inhibition at 3.7 µM of 16.4%.

In turn, `CCn1c([C@@H](C)NS(=O)(=O)c2ccc(Cl)cc2)nc2cc(F)c(F)cc21` [Example 20, 4-Chloro-N-[(1R)-1-(1-ethyl-5,6-difluoro-1H-benzimidazol-2-yl)ethyl]benzenesulfonamide] registered an inhibition at 3.7 µM of 79.5%.

Still in this experiment, the particulars now being: one or the other of the two Transfluor assays; Edg-1 Transfluor U2OS cells, S1P ligand.
In general, EC50 refers to the concentration giving half of the maximal effect. With `CCn1c([C@H](C)NS(=O)(=O)c2ccc(Cl)cc2)nc2cnccc21` [4-chloro-N-[(1S)-1-(1-ethyl-1H-imidazo[4,5-c]pyridin-2-yl)ethyl]benzenesulfonamide], the EC50 is > 33 µM.

Compound `CC(NS(=O)(=O)c1ccc(Cl)cc1)c1nc2ccccc2n1CC1CC1` (centres unmarked) [Example 18, 4-Chloro-N-{1-[1-(cyclopropylmethyl)-1H-benzimidazol-2-yl]ethyl}-benzenesulfonamide] returned a half-maximal effective concentration (EC50) of 0.896 µM.

In turn, `CC(C)Cn1c(C(C)NS(=O)(=O)c2ccc(Cl)cc2)nc2ccccc21` (centres unmarked) [Example 19, 4-Chloro-N-[1-(1-isobutyl-1H-benzimidazol-2-yl)ethyl]-benzenesulfonamide] displayed an EC50 of 10.3 µM.
